This is an account of results in ChEMBL document CHEMBL5108065 (J Med Chem, 2022).

Series [1] has as its system Plasmodium falciparum. As to the kind of experiment: Antimalarial activity against KAF156 resistant Plasmodium falciparum Dd2 harbouring pf-carl mutated loci assessed as inhibition of parasite growth pretreated for 48 hrs followed by [3H]-hypoxanthine addition measured after 24 hrs by scintillation counting method. It is filed as functional, organism-based.
The subject of series [2] is Plasmodium falciparum. As to the kind of experiment: Antimalarial activity against Plasmodium falciparum PH1263-C harbouring Pf-crt mutated loci assessed as inhibition of parasite growth pretreated for 48 hrs followed by [3H]-hypoxanthine addition measured after 24 hrs by scintillation counting method. Format: functional, organism-based.
For series [3], the system named is Plasmodium falciparum. As to the kind of experiment: Antimalarial activity against DDD107498 resistant Plasmodium falciparum Dd2 harbouring pfeef2 mutated loci assessed as inhibition of parasite growth pretreated for 48 hrs followed by [3H]-hypoxanthine addition measured after 24 hrs by scintillation counting method. It is filed as functional, organism-based.
A short description of series [4]: Cmax in Han Wistar rat at 1000 mg/kg, po administered every other day for 7 days. It is filed as ADME, organism-based. The settings on record: in vivo. Also on record: dose 1000 mg/kg, time 7 day, route po.
Series [5] can be described thus: fCmax in Han Wistar rat at 1000 mg/kg, po administered every other day for 7 days. It is filed as ADME, organism-based. The settings on record: in vivo, 168 h, time 7 day.
The nature of series [6]: Cardiotoxicity in anesthetized guinea-pig assessed as QRS widening at 90 nM. It is filed as toxicity, Cavia porcellus. The settings on record: 0.09 µM.
The target in another series is T1, Plasmepsin IX (Plasmodium falciparum, UniProt Q8ILG2).
T1 sequence (Q8ILG2 whole entry): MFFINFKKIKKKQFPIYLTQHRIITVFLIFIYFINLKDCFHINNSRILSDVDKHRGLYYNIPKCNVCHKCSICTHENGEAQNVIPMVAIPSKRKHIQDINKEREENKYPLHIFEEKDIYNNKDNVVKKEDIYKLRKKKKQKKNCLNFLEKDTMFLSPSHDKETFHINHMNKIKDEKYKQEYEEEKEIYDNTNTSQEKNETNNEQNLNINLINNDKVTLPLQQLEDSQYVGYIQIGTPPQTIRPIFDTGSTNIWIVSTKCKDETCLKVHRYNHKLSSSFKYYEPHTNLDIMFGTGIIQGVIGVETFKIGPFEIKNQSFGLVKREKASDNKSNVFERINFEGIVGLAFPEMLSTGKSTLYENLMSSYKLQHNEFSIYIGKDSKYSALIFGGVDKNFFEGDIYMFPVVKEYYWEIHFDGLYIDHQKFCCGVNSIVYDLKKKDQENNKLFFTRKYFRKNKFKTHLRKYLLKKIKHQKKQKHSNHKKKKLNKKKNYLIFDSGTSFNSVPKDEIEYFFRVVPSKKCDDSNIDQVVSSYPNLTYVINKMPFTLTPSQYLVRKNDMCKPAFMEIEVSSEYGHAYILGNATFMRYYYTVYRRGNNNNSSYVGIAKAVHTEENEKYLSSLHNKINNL
As to the kind of experiment: Inhibition of PMIX in Plasmodium falciparum 3D7 HA epitope.

Series [7] in a line: Oral bioavailability in Cynomolgus monkey blood at 10 mg/kg measured at 2 to 72 hrs by LC-MS/MS analysis. The conditions noted are these: time 2-72 hrs. Format: ADME, organism-based, Macaca fascicularis.
Series [8] in a line: Phototoxicity assessed as minimum extinction coefficient of the compound. Format: toxicity.
The subject of series [9] is Plasmodium falciparum. As to the kind of experiment: Antimalarial activity against Plasmodium falciparum Dd2 harbouring Pf-crt, Pf-mdrl,Pf-dhfr, Pf-dhps mutated loci assessed as inhibition of parasite growth pretreated for 48 hrs followed by [3H]-hypoxanthine addition measured after 24 hrs by scintillation counting method. It is filed as functional, organism-based.
Series [10] is described as follows: AUC in Cynomolgus monkey blood at 10 mg/kg, po measured at 2 to 72 hrs by LC-MS/MS analysis. Format: ADME, organism-based, Macaca fascicularis. Also on record: dose 10 mg/kg, time 2-72 hrs, route po.
Series [11] in a line: Toxicity in Han Wistar rat assessed as changes in ophthalmology at 250 to 1000 mg/kg, po administered every other day for 7 days. It is filed as organism-based. The settings on record: in vivo, 168 h, dose 250-1000 mg/kg, time 7 day.
A short description of series [12]: AUC in Cynomolgus monkey blood at 1 mg/kg, iv measured at 2 to 72 hrs by LC-MS/MS analysis. Format: ADME, organism-based, Macaca fascicularis. Also on record: dose 1 mg/kg, time 2-72 hrs, route iv. The conditions noted are these: whole blood.
The nature of series [13]: fAUC in Han Wistar rat at 1000 mg/kg, po administered every other day for 7 days. It is filed as ADME, organism-based. The settings on record: in vivo, 168 h, time 7 day.
In series [14] the target is Potassium voltage-gated channel subfamily A member 5 (Homo sapiens, UniProt P22460). As to the kind of experiment: Inhibition of Kv1.5 (unknown origin) by patch clamp method. Format: toxicity.
Chain of Potassium voltage-gated channel subfamily A member 5 (P22460 whole entry): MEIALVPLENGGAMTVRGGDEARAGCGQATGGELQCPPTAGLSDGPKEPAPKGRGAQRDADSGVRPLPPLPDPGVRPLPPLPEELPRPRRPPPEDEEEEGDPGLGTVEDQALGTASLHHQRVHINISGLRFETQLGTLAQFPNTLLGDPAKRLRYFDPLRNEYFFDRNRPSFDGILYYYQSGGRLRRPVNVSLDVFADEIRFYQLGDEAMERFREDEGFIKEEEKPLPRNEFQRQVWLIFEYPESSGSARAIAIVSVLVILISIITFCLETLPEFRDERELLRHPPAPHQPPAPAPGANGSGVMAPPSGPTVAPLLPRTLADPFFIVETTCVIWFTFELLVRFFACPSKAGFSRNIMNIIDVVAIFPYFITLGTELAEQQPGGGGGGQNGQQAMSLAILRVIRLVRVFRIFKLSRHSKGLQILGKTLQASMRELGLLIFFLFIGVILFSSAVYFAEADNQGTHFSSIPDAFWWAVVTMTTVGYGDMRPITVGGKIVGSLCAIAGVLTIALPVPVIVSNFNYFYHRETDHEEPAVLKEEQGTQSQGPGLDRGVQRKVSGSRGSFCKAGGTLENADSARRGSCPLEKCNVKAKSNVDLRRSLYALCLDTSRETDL
The nature of series [15]: Inhibition of Plasmodium falciparum PMV by FRET assay.
Series [16] can be described thus: Drug metabolism in rat hepatocytes assessed as (S)-6-(2-chloro-3-((6-cyclopropylpyridin-3-yl)amino)phenyl)-2-imino-6-methyltetrahydropyrimidin-4(1H)-one metabolite formation. Format: ADME, cell-based, Hepatocyte.
Series [17] in a line: Drug metabolism in Cynomolgus monkey hepatocytes assessed as (S)-6-(2-chloro-3-((6-cyclopropylpyridin-3-yl)amino)phenyl)-2-imino-6-methyl-3-((2S,4S)-2-methyltetrahydro-2H-pyran-4-yl)tetrahydropyrimidin-4(1H)-one metabolite formation. Format: ADME, cell-based, Macaca fascicularis, Hepatocyte.
Series [18] deals with Plasmodium berghei. As to the kind of experiment: Antimalarial activity against luciferase expressing Plasmodium berghei sporozoites infected in naive C57B/6 liver mouse model assessed as decrease in liver infection at 50 mg/kg, po administered once daily on day 8 by Giemsa staining based microscopic analysis. The conditions noted are these: time 8.0 day. It is filed as functional, organism-based.

The target in series [19] is T2, A-type voltage-gated potassium channel KCND3 (Homo sapiens, UniProt Q9UK17).
T2 sequence (Q9UK17 whole entry): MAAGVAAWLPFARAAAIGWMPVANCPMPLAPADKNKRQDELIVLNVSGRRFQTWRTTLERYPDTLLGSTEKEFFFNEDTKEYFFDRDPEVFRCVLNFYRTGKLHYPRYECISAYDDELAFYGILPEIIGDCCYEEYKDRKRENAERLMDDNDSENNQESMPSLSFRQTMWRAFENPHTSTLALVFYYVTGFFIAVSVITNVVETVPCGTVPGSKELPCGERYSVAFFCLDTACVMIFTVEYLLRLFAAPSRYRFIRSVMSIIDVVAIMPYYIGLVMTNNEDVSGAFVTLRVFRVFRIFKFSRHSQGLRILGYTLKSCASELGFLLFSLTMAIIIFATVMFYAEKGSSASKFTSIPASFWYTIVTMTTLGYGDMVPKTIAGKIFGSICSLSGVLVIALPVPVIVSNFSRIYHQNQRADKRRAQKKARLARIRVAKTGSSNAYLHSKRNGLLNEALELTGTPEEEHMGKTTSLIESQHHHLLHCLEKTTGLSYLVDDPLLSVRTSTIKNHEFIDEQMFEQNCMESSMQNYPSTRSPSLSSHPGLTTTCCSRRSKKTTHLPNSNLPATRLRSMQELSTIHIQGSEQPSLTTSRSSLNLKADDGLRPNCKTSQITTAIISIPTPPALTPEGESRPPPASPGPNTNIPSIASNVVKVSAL
As to the kind of experiment: Inhibition of Kv4.3 (unknown origin) by patch clamp method. Format: toxicity. On the technique in general: The patch-clamp technique gives a direct electrical read-out from membranes.

Series [20] can be described thus: Drug metabolism in Cynomolgus monkey hepatocytes assessed as (S)-6-(2-chloro-3-((6-cyclopropylpyridin-3-yl)amino)phenyl)-2-imino-6-methyltetrahydropyrimidin-4(1H)-one metabolite formation. Format: ADME, cell-based, Macaca fascicularis, Hepatocyte.
Series [21] has as its system Plasmodium berghei. As to the kind of experiment: Antimalarial activity against Plasmodium berghei sporozoites infected in naive C57B/6 liver mouse model assessed as decrease in liver infection at 50 mg/kg, po administered twice daily for 1 to 2 days by Giemsa staining based microscopic analysis. Format: functional, organism-based. The settings on record: time 1-2 day.

The subject of series [22] is Plasmodium falciparum. As to the kind of experiment: Antimalarial activity against blood stage Plasmodium infected in NSG mouse model assessed as parasite recrudescence by measuring parasitemia at 50 mg/kg, po measured 96 hrs by flow cytometry. Format: functional, organism-based. (In flow cytometry, cells or beads pass a laser one at a time.)
The target in series [23] is Voltage-dependent L-type calcium channel subunit alpha-1C (Homo sapiens, UniProt Q13936). As to the kind of experiment: Inhibition of Cav1.2 (unknown origin) cardiac ion channel by patch clamp assay. It is filed as toxicity.
Chain of Voltage-dependent L-type calcium channel subunit alpha-1C (Q13936 whole entry): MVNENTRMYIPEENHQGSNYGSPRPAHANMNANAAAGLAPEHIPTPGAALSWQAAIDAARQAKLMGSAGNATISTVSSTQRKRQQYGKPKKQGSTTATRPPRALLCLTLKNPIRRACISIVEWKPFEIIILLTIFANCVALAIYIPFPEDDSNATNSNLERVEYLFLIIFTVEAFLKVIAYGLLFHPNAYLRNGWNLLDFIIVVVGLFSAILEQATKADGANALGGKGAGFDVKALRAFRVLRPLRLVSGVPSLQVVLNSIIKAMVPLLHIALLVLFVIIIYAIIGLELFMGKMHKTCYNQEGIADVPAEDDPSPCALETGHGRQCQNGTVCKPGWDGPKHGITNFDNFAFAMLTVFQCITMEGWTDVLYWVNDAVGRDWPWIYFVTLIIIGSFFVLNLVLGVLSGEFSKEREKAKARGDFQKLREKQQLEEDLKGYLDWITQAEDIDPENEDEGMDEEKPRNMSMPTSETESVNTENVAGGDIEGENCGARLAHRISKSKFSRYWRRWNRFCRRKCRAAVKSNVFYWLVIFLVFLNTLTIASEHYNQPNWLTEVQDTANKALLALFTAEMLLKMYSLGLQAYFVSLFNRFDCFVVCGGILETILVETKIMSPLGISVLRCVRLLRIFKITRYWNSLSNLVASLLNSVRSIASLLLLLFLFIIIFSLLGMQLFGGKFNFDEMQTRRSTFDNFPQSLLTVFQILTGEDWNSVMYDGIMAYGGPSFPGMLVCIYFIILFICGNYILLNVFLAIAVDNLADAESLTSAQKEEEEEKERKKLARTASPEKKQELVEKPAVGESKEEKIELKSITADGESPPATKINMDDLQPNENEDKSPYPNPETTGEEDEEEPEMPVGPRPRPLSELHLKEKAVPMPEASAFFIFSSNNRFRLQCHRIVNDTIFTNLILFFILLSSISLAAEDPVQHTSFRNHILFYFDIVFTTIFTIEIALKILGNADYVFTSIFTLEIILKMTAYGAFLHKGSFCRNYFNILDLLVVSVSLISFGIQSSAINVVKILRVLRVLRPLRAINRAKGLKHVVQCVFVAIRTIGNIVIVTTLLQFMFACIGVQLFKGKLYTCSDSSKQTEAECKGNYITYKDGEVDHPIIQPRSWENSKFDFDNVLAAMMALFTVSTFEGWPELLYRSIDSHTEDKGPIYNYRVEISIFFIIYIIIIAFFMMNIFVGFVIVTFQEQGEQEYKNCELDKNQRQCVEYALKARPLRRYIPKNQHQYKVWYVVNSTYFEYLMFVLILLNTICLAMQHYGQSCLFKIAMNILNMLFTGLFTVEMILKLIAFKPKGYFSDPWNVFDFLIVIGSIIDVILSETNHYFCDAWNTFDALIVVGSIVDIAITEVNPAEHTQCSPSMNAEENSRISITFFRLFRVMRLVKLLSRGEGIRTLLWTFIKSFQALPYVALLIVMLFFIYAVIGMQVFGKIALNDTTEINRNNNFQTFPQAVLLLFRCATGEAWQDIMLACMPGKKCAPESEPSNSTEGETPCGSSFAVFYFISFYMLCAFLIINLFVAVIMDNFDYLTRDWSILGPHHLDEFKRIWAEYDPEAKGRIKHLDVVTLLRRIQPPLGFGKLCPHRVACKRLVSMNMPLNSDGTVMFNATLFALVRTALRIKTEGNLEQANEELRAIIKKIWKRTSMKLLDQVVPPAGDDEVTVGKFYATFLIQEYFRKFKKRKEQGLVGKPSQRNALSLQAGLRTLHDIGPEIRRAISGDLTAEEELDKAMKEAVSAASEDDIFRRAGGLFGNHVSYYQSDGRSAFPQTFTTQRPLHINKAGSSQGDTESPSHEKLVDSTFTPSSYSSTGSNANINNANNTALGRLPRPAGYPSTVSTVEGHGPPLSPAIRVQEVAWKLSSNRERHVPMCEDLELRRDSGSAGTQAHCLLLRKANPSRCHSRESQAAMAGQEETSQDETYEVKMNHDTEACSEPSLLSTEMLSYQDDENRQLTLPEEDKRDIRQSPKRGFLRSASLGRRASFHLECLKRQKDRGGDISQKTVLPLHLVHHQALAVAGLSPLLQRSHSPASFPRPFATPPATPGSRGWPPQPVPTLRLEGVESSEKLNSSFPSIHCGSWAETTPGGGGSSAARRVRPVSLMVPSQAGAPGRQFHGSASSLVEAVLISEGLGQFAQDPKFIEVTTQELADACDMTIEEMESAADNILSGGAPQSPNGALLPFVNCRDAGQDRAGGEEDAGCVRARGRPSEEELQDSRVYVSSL

Calls of active or inactive are those of the source. No cut-off for these calls is given here.

A word on the IC50: it is the concentration that gives 50% inhibition. The term Cmax denotes the maximum level reached in the sampled fluid or tissue. What is called bioavailability is dose-corrected exposure relative to a reference, in per cent. The AUC is the area under the concentration-time curve, a measure of exposure. In the case of `C[C@H]1C[C@@H](N2C(=N)N[C@](C)(c3cccc(NC(=O)c4cccc(C#N)c4)c3Cl)CC2=O)CCO1`, the IC50 in the series on Plasmodium falciparum [1] came to 0.019 µM; in the series with Plasmodium falciparum [2], 0.018 µM; in the series on Plasmodium falciparum [3], 0.022 µM; against Plasmepsin IX, 0.142 µM; in the series with Plasmodium falciparum [9], 0.018 µM. Moreover, the concentration in series [4] peaked (Cmax) at 25000 ng/mL. In addition, the fCmax in series [5] is 11 µM. The Activity result in series [6] is on record as “Non-Toxic”; in series [8], 2336 a.u.L/mol.cm; in series [11], “Non-Toxic”. The compound further gave a bioavailability in series [7] of 39%. Also, the AUC came out at 7.38 µM·h in series [10] and 1.91 µM·h in series [12]. For the same compound, the fAUC in series [13] is 908 µM·h.

For the compound `C[C@H]1C[C@@H](N2C(=N)N[C@](C)(c3cccc(Nc4ccc(C5CC5)nc4)c3Cl)CC2=O)CCO1`, the half-inhibitory concentration (IC50) in series [14] was 5 µM; in [15], over 10 µM; in [19], 28 µM; in series [23] it was 27 µM. Also, the Drug metabolism entry in [16], in series [17] and in series [20] was “Metabolite_Detected” in each case. The outcome in the series with Plasmodium berghei [18], with Plasmodium berghei [21] and with Plasmodium falciparum [22] was Active.
